Consider 15 molecules from patent publication EP0791004B1, “ACYLATED BENZYLGLYCOSIDES AS INHIBITORS OF SMOOTH MUSCLE CELL PROLIFERATION” (AMERICAN HOME PRODUCTS CORPORATION, priority 1994, dated 1996).

Series [1] relates to normal human plasma. Description: Anticoagulant activity, partial thromboplastin time (APTT) assay. As to conditions: human citrated plasma. It is filed as biochemical. The procedure: The anticlotting activity of the compounds of this invention was evaluated in a partial thromboplastin time (APTT) assay using normal human plasma collected from 5 donors according to the procedure of Fenichel et. al. (Clin. Chem. 1964, 10, 69). A BBL Fibrometer automatic precision coagulation timer utilizing a 0.3 mL probe was employed. An Ellagic acid activated partial thromboplastin was used for these experiments. This reagent was added to human citrated plasma equilibrated at 37 °C in a plastic well in the clot timer. Calcium at 37 °C was added, the clot timer was started and the time for fibrin clot formation (in seconds) was recorded. The effect of the compounds, added to plasma, over a concentration of 12.5 - 200 µg/mL was determined. […] An unfractionated heparin comparator was used over the concentration range of 1.25 - 10 µg/mL. Clotting tests at all concentrations were run in triplicate. Analysis of variance for a randomized block design was used to determine the significance of differences observed in the clotting times. […]

Series [2] concerns Porcine Smooth Muscle Cell. Description: Cytotoxicity, MTT assay. The note with it: up to 100 µg/mL; 24 h, medium without serum. It counts as cell-based. The procedure: Briefly, cells were again grown in 24 well plates to 70 - 80 % confluency and, as before, serum deprived for 24 - 48 h prior to initiation of the experimental protocol. To insure that the MTT assay monitored toxicity rather than proliferation, cells were incubated with 100 µg/mL of drug in fresh medium without serum for 24 h at 37 °C in a humidified CO2 incubator. Upon completion of the compound treatment, MTT (3-[4,5-dimethylthiazol-2-yl]-2,5-diphenyltetrazolium bromide) indicator dye was added for 4 h at 37 °C. Cells were then lysed and aliquots from each well were transferred to a 96 well plate for analysis. Absorbance at 570 nm wavelength with a reference wavelength of 630 nm was recorded using an ELISA plate reader. Results were determined as percent viable using no drug (100% viable) and pre-solubilization (0% viable) standards.
(In general: Tetrazolium assays rely on reduction of a dye to a coloured formazan, in cell work by metabolically active cells.)

The test system of series [3] is Porcine Smooth Muscle Cell. Description: Smooth muscle cell proliferation, 3H thymidine incorporation (serum stimulated). It is filed as cell-based. The note with it: for IC50: 3H thymidine incorporation, read-out: Porcine Smooth Muscle Cell Antiproliferation IC50. The procedure:
The ability of the compounds of the present invention to inhibit smooth muscle cell proliferation was established using isolated aortic cells. Porcine aortas were received from a local slaughterhouse and were iced during transit. The aorta was scrupulously cleansed of fatty tissue and rinsed in sterile phosphate-buffered saline with 2% antibiotic/antimycotic (Gibco catalog # 600 - 5240 AG). The tissue was then digested in 10 - 15 mL of "Enzyme Mixture" containing collagenase type I, 165 U/mL; elastase type III, 15 U/mL; BSA, 2 mg/mL; and soybean trypsin inhibitor, 0.375 mg/mL followed by incubation at 37 °C under 5% CO2 for 10 - 15 min. After this treatment, the outer surface adventitia was easily removed by peeling with forceps. The aorta was then longitudinally cut and laid open and the endothelial layer was removed by scraping.
The medial layer of cells was rinsed in enzyme solution, and placed in a new 100 mm dish with 10 mL of enzyme solution. The aorta was minced using a fine pair of scissors and digested for 2 - 3 h at 37 °C in 30 mL of fresh enzyme solution. After digestion, the tissue was homogenized using a sterile Pasteur pipette with a fire polished tip or an eppendorf pipetter with a 200 - 1000 µL sterile pipette tip. The suspension was then centrifuged for 10 minutes at 8000 rpm and the pellet was suspended in 4 - 6 mL of fresh medium and plated onto 4 - 6 100 mm flasks with vented caps. Cells were allowed to grow to confluence and split using 0.25 % trypsin. Cells were evaluated for purity and overall quality using antibody to SMC actin.
Cells were assayed in early passage (generally passage 3 - 7) at sub-confluent conditions. Cultures were grown in 16 mm (24 well) multi-well culture dishes in medium 199 supplemented with 10% fetal bovine serum and 2% antibiotic/ antimycotic. At sub-confluence, the cells were placed in a defined serum free medium (AIM-V; Gibco) for 24 - 48 h prior to initiating the experimental protocol.
Compounds were added to each well at 50 fold dilution (20 µL / well) and the plates were incubated for 24 - 36 h at 37 °C in 5% CO2. Compounds were initially dissolved in 50% ethanol and serially diluted into media. Compounds were routinely assayed at concentrations from 1 to 100 µM. As a control, grade II porcine intestinal mucosal heparin (sodium salt) from Sigma (H-7005) was routinely assayed in all cell preparations at concentrations from 0.1 to 100 µg/mL.
At the completion of the experiment, plates were placed on ice, washed three times with ice cold phosphate buffered saline (PBS) and incubated in ice cold 10% trichloroacetic acid (TCA) for 30 minutes to remove acid soluble proteins. Solution was transferred to scintillation vials containing 0.4 N HCl (500 µL/vial to neutralize NaOH) and each well was rinsed two times with water (500 µL) for a total volume of 2 mL/vial.
Data was obtained, in triplicate, for both control and experimental samples. Control (100%) data was obtained from maximally stimulated cells, as the result of growth factor or serum stimulation. Experimental data was obtained from cells maximally stimulated with growth factor or serum and treated with compound. Data was expressed as a percent of control from which a percent inhibition or IC50 could be determined.

[4] abbreviates: Sus scrofa, read-out: Porcine Smooth Muscle Cell Antiproliferation (% Inhibition at x concentration).

`CC(=O)OC[C@H]1O[C@H](O[C@H]2[C@H](OC(C)=O)[C@@H](OC(C)=O)[C@H](OCc3ccc(C)c(N)c3)O[C@@H]2COC(C)=O)[C@H](OC(C)=O)[C@@H](OC(C)=O)[C@@H]1OC(C)=O` [Example 3, 5-(Hepta-O-acetyl-β-maltosyloxymethyl)-2-methylphenylamine]: the “anticoagulant activity (APTT assay)” value in series [1] is listed as “no anticoagulant activity”. Besides, in series [2], the “toxicity (MTT, percent viable)” value was “no toxicity”.
Regarding “Butane-1-sulfonic Acid N-[5-(Hepta-O-acetyl-β-D-maltosyloxymethyl)-2-methylphenyl]amide [Example 28]”, the IC50 in series [3] was 9 µM.
`CC(=O)OC[C@H]1O[C@H](O[C@H]2[C@H](OC(C)=O)[C@@H](OC(C)=O)[C@H](OCc3ccc(N)c(C)c3)O[C@@H]2COC(C)=O)[C@H](OC(C)=O)[C@@H](OC(C)=O)[C@@H]1OC(C)=O` [Example 29, 4-(Hepta-O-acetyl-β-D-maltosyloxymethyl)-2-methylphenylamine]: in series [3] (setting [4]), the inhibition at 40 µM was 70%.
For the molecule `CCC(=O)OC[C@H]1O[C@H](O[C@H]2[C@H](OC(=O)CC)[C@@H](OC(=O)CC)[C@H](OCc3ccc(C)c(N(C(=O)CC)S(=O)(=O)c4ccc(N(C(=O)CC)S(C)(=O)=O)cc4)c3)O[C@@H]2COC(=O)CC)[C@H](OC(=O)CC)[C@@H](OC(=O)CC)[C@@H]1OC(=O)CC` [Example 33, N-Propionyl-4-[propionyl(methanesulfonyl)amino]-N-[5-(hepta-O-propionyl-β-D-maltosyloxymethyl)-2-methylphenyl]benzenesulfonamide], in series [3] (Sus scrofa, at 20 µM, read-out: Porcine Smooth Muscle Cell Antiproliferation (% Inhibition at x concentration)), the inhibition at 20 µM came to 30%.
Consider `CC(=O)OC[C@H]1O[C@H](O[C@H]2[C@H](OC(C)=O)[C@@H](OC(C)=O)[C@H](OCc3ccc(C)c(NC(=O)CCC4CCCC4)c3)O[C@@H]2COC(C)=O)[C@H](OC(C)=O)[C@@H](OC(C)=O)[C@@H]1OC(C)=O` [Example 16, N-[5-(Hepta-O-acetyl-β-D-maltosyloxymethyl)-2-methylphenyl]-3-cyclopentylpropionamide], for which the “toxicity (MTT, percent viable)” value in series [2] is “no toxicity”.
With `CC(=O)OC[C@H]1O[C@H](O[C@H]2[C@H](OC(C)=O)[C@@H](OC(C)=O)[C@H](OCc3ccc(C)c(NC(=O)c4cccc([N+](=O)[O-])c4)c3)O[C@@H]2COC(C)=O)[C@H](OC(C)=O)[C@@H](OC(C)=O)[C@@H]1OC(C)=O` [Example 4, N-[5-(Hepta-O-acetyl-β-D-maltosyloxymethyl)-2-methylphenyl]-3-nitrobenzamide], in series [3] (setting [4]), the inhibition at 50 µg/mL came out at 13%.
`CC(=O)OC[C@H]1O[C@H](O[C@H]2[C@H](OC(C)=O)[C@@H](OC(C)=O)[C@H](OCc3ccc(C)c(NS(=O)(=O)c4ccc(C)cc4)c3)O[C@@H]2COC(C)=O)[C@H](OC(C)=O)[C@@H](OC(C)=O)[C@@H]1OC(C)=O` [Example 24, N-[5-(Hepta-O-acetyl-β-D-maltosyloxymethyl)-2-methylphenyl]-4-methylbenzenesulfonamide]: in series [3] (setting [4]), the inhibition at 40 µM came out at 61%.
On to `CC(=O)OC[C@H]1O[C@H](O[C@H]2[C@H](OC(C)=O)[C@@H](OC(C)=O)[C@H](OCc3ccc(C)c(NC(=O)C4CC4)c3)O[C@@H]2COC(C)=O)[C@H](OC(C)=O)[C@@H](OC(C)=O)[C@@H]1OC(C)=O` [Example 14, Cyclopropanecarboxylic Acid N-[5-(Hepta-O-acetyl-β-D-maltosyloxymethyl)-2-methylphenyl]amide], for which the “toxicity (MTT, percent viable)” value in series [2] is given as “no toxicity”.
Turning to `CC(=O)OC[C@H]1O[C@H](O[C@H]2[C@H](OC(C)=O)[C@@H](OC(C)=O)[C@H](OCc3ccc(N(S(=O)(=O)c4ccc([N+](=O)[O-])cc4)S(=O)(=O)c4ccc([N+](=O)[O-])cc4)c(C)c3)O[C@@H]2COC(C)=O)[C@H](OC(C)=O)[C@@H](OC(C)=O)[C@@H]1OC(C)=O` [Example 31, N-[4-(Hepta-O-acetyl-β-D-maltosyloxymethyl)-2-methylphenyl]-4-nitro-N-(4-nitrophenylsulfonyl)benzenesulfonamide], the inhibition at 100 µM in series [3] (Sus scrofa, at 100 µM, read-out: Porcine Smooth Muscle Cell Antiproliferation (% Inhibition at x concentration)) is 37%.
As to `CC(=O)Nc1cccc(C(=O)Nc2cc(CO[C@@H]3O[C@H](COC(C)=O)[C@@H](O[C@H]4O[C@H](COC(C)=O)[C@@H](OC(C)=O)[C@H](OC(C)=O)[C@H]4OC(C)=O)[C@H](OC(C)=O)[C@H]3OC(C)=O)ccc2C)c1` [Example 6, 3-Acetylamino-N-[5-(hepta-O-acetyl-β-D-maltosyloxymethyl)-2-methylphenyl]benzamide], the “toxicity (MTT, percent viable)” value in series [2] is on record as “no toxicity”.
With `CC(=O)OC[C@H]1O[C@H](O[C@H]2[C@H](OC(C)=O)[C@@H](OC(C)=O)[C@H](OCc3ccc(C)c(NC(=O)C4CCCC4)c3)O[C@@H]2COC(C)=O)[C@H](OC(C)=O)[C@@H](OC(C)=O)[C@@H]1OC(C)=O` [Example 15, Cyclopentanecarboxylic Acid N-[5-(Hepta-O-acetyl-β-D-maltosyloxymethyl)-2-methylphenyl]amide], the “toxicity (MTT, percent viable)” value in series [2] was “no toxicity”.
`CC(=O)OC[C@H]1O[C@@H](OCc2ccc(C)c(NC(=O)c3cccc([N+](=O)[O-])c3)c2)[C@H](OC(C)=O)[C@@H](OC(C)=O)[C@@H]1OC(C)=O` [Example 1, N-[2-Methyl-5-(2,3,4,6-tetra-O-acetyl-β-D-glucopyranosyloxymethyl)phenyl]-3-nitrobenzamide]: the inhibition at 50 µg/mL in series [3] (setting [4]) worked out at 79%.
Consider `CC(=O)OC[C@H]1O[C@@H](OCc2ccc(C)c(NC(=O)c3cccc(N)c3)c2)[C@H](OC(C)=O)[C@@H](OC(C)=O)[C@@H]1OC(C)=O` [Example 2, 3-Amino-N-[2-methyl-5-(2,3,4,6-tetra-O-acethyl-β-D-glucopyranosyloxymethyl)phenyl]benzamide], for which, in series [3] (setting [4]), the inhibition at 50 µg/mL amounted to 23%.
In the case of `CC(=O)OC[C@H]1O[C@H](O[C@H]2[C@H](OC(C)=O)[C@@H](OC(C)=O)[C@H](OCc3ccc(C)c(NC(=O)c4cccc(N)c4)c3)O[C@@H]2COC(C)=O)[C@H](OC(C)=O)[C@@H](OC(C)=O)[C@@H]1OC(C)=O` [Example 5, N-[5-(Hepta-O-acetyl-β-D-maltosyloxymethyl)-2-methylphenyl]-3-aminobenzamide], in series [3] (setting [4]), the inhibition at 50 µg/mL was found to be 44%.
In the case of “N-{3-[2-(Hepta-O-acetyl-β-D-maltosyloxymethyl)-6-methylphenylcarbamoyl]phenyl}-3,5-di-tert-butyl-4-hydroxybenzamide [Example 7]”, in series [3], the IC50 was 185 µM.
